Experimental data taken from patent US7138361B2, “Herbicidal heterocycles” (E. I. du Pont de Nemours and Company, priority 2000, dated 2006).

What was measured:
Format in all cases: in vivo
rice (Oryza saliva) = assay: Test C flooded paddy test; details: for Rice plant response rating: Flooded Paddy, scale 0 to 100, 0 no effect, 100 complete control; for Plant response rating, Rice / Plant response rating (scale 0 to 100), Rice: flooded paddy test; for Plant response rating, Rice: scale 0 to 100 (0 no effect, 100 complete control)
Procedure, shortened: (§1)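 Greenhouse-maintained for 12 to 14 days after treatment, the paddy plants (2-leaf stage at application) were scored visually against controls. A score of 0 denotes no effect and a score of 100 denotes complete control.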

[1] = system: smallflower flatsedge (Cyperus difformis); assay: Test C flooded paddy test; details: for Flatsedge plant response rating: Flooded Paddy, scale 0 to 100, 0 no effect, 100 complete control; for Plant response rating, Flatsedge / Plant response rating (scale 0 to 100), Flatsedge: flooded paddy test; for Plant response rating, Flatsedge: scale 0 to 100 (0 no effect, 100 complete control)
Procedure, shortened: as §1

[2] = system: Surinam grass (Brachiaria decumbens); assay: Test C postemergence
Procedure, shortened: (§2)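 Plants held in greenhouse for 12–14 days post-application are scored by eye against controls on a 0–100 control scale. Application timing: preemergence on sown seed, or postemergence on 2–18 cm plants.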

[3] = system: pigweed (Amaranthus retroflexus); assay: Test C postemergence
Procedure, shortened: as §2

soybean (Glycine max) = assay: Test C postemergence
Procedure, shortened: as §2

[4] = system: goosegrass (Eleusine indica); assay: Test C postemergence
Procedure, shortened: as §2

[5] = system: johnsongrass (Sorghum halepense); assay: Test C postemergence
Procedure, shortened: as §2

kochia (Kochia scoparia) = assay: Test C postemergence
Procedure, shortened: as §2

[6] = system: yellow nutsedge (Cyperus esculentus); assay: Test C postemergence
Procedure, shortened: as §2

[7] = system: morningglory (Ipomoea hederacea); assay: Test C postemergence
Procedure, shortened: as §2

[8] = system: crabgrass (Digitaria sanguinalis); assay: Test C postemergence
Procedure, shortened: as §2

[9] = system: lambsquarters (Chenopodium album); assay: Test C postemergence
Procedure, shortened: as §2

[10] = system: cocklebur (Xanthium strumarium); assay: Test C postemergence
Procedure, shortened: as §2

corn (Zea mays) = assay: Test C postemergence
Procedure, shortened: as §2

[11] = system: giant foxtail (Setaria faberii); assay: Test C postemergence
Procedure, shortened: as §2

[12] = system: woolly cupgrass (Eriochloa villosa); assay: Test C postemergence
Procedure, shortened: as §2

[13] = system: bermudagrass (Cynodon dactylon); assay: Test C postemergence
Procedure, shortened: as §2

[14] = system: velvetleaf (Abutilon theophrasti); assay: Test C postemergence
Procedure, shortened: as §2

[15] = system: chickweed (Stellaria media); assay: Test C postemergence
Procedure, shortened: as §2

[16] = system: common ragweed (Ambrosia elatior); assay: Test C postemergence
Procedure, shortened: as §2

[17] = Rate 16 g/ha, visually evaluated after 12 to 14 days, 0 = no effect, 100 = complete control
[18] = Rate 62 g/ha, visually evaluated after 12 to 14 days, 0 = no effect, 100 = complete control
[19] = under head Rate 16 g/ha, (own rate not given), after 12 to 14 days
[20] = Rate 250 g/ha, scale 0 to 100 (0 no effect, 100 complete control)
[21] = Rate 500 g/ha, scale 0 to 100 (0 no effect, 100 complete control)
[22] = Rate 125 g/ha, scale 0 to 100, 0 no effect, 100 complete control

SMILES: CCC(CC)c1ccn(C2OCN(c3cccc(OC(F)F)c3)C2=O)n1 (stereo not drawn) [Compound 131]
- Rice plant response rating (rice (Oryza saliva); Rate 250 g/ha): 80
- Rice plant response rating (rice (Oryza saliva); Rate 500 g/ha): 90
- Plant response rating, Rice (rice (Oryza saliva); Rate 125 g/ha): 15
- Plant response rating (scale 0 to 100), Rice (rice (Oryza saliva); [17]): 0
- Plant response rating (scale 0 to 100), Rice (rice (Oryza saliva); [18]): 0
- Plant response rating (scale 0 to 100), Rice (rice (Oryza saliva); [19]): 0
- Flatsedge plant response rating ([1]; Rate 250 g/ha): 100
- Flatsedge plant response rating ([1]; Rate 500 g/ha): 100
- Plant response rating, Flatsedge ([1]; Rate 125 g/ha): 100
- Plant response rating (scale 0 to 100), Flatsedge [1, 17]: 90
- Plant response rating (scale 0 to 100), Flatsedge [1, 18]: 90
- Plant response rating (scale 0 to 100), Flatsedge [1, 19]: 90
- Plant response rating, Surinam grass ([2]; Rate 62 g/ha, scale 0 to 100): 0
- Plant response rating, Surinam grass [2, 20]: 40
- Plant response rating, Surinam grass [2, 21]: 40
- Plant response rating, Pigweed ([3]; Rate 62 g/ha, scale 0 to 100): 20
- Plant response rating, Pigweed [3, 20]: 90
- Plant response rating, Pigweed [3, 21]: 100
- Plant response rating, Soybean (soybean (Glycine max); Rate 62 g/ha, scale 0 to 100): 20
- Plant response rating, Soybean (soybean (Glycine max); [20]): 30
- Plant response rating, Soybean (soybean (Glycine max); [21]): 50
- Plant response rating, Goosegrass ([4]; Rate 62 g/ha, scale 0 to 100): 40
- Plant response rating, Goosegrass [4, 20]: 70
- Plant response rating, Goosegrass [4, 21]: 80
- Plant response rating, Johnsongrass ([5]; Rate 62 g/ha, scale 0 to 100): 0
- Plant response rating, Johnsongrass [5, 21]: 30
- Plant response rating, Johnsongrass ([5]; rate not given, scale 0 to 100): 20
- Plant response rating, Kochia (kochia (Kochia scoparia); Rate 62 g/ha, scale 0 to 100): 60
- Plant response rating, Kochia (kochia (Kochia scoparia); [20]): 80
- Plant response rating, Kochia (kochia (Kochia scoparia); [21]): 90
- Plant response rating, Nutsedge ([6]; Rate 62 g/ha, scale 0 to 100): 0
- Plant response rating, Nutsedge [6, 20]: 0
- Plant response rating, Nutsedge [6, 21]: 0
- Plant response rating, Morningglory [7, 20]: 80
- Plant response rating, Morningglory [7, 21]: 100
- Plant response rating, Crabgrass [8, 20]: 80
- Plant response rating, Crabgrass [8, 21]: 90
- Plant response rating, Lambsquarters ([9]; Rate 62 g/ha, scale 0 to 100): 100
- Plant response rating, Lambsquarters [9, 20]: 100
- Plant response rating, Lambsquarters [9, 21]: 100
- Plant response rating, Cocklebur ([10]; Rate 62 g/ha, scale 0 to 100): 0
- Plant response rating, Cocklebur [10, 20]: 30
- Plant response rating, Cocklebur [10, 21]: 30
- Plant response rating, Corn (corn (Zea mays); Rate 62 g/ha, scale 0 to 100): 0
- Plant response rating, Corn (corn (Zea mays); [20]): 20
- Plant response rating, Corn (corn (Zea mays); [21]): 30
- Plant response rating, Corn (corn (Zea mays); scale 0 to 100): 10
- Plant response rating, Foxtail, Giant ([11]; Rate 62 g/ha, scale 0 to 100): 20
- Plant response rating, Foxtail, Giant [11, 20]: 50
- Plant response rating, Foxtail, Giant [11, 21]: 80
- Plant response rating, Cupgrass, Woolly ([12]; Rate 62 g/ha, scale 0 to 100): 10
- Plant response rating, Cupgrass, Woolly [12, 20]: 70
- Plant response rating, Cupgrass, Woolly [12, 21]: 80
- Plant response rating, Bermudagrass ([13]; Rate 62 g/ha, scale 0 to 100): 20
- Plant response rating, Bermudagrass [13, 22]: 60
- Plant response rating, Bermudagrass [13, 20]: 90
- Plant response rating, Bermudagrass [13, 21]: 90
- Plant response rating, Velvetleaf ([14]; Rate 62 g/ha, scale 0 to 100): 20
- Plant response rating, Velvetleaf [14, 20]: 20
- Plant response rating, Velvetleaf [14, 21]: 30
- Plant response rating, Velvetleaf ([14]; scale 0 to 100): 20

SMILES: COc1cc(N2CCC(n3ccc(C(C)C)n3)C2=O)ccc1Br (stereo not drawn) [Compound 140]
- Rice plant response rating (rice (Oryza saliva); Rate 500 g/ha): 50
- Plant response rating, Rice (rice (Oryza saliva); Rate 125 g/ha): 30
- Plant response rating, Rice (rice (Oryza saliva); Rate 250 g/ha): 35
- Plant response rating (scale 0 to 100), Rice (rice (Oryza saliva); [18]): 0
- Flatsedge plant response rating ([1]; Rate 500 g/ha): 95
- Plant response rating, Flatsedge ([1]; Rate 125 g/ha): 90
- Plant response rating, Flatsedge ([1]; Rate 250 g/ha): 95
- Plant response rating (scale 0 to 100), Flatsedge [1, 18]: 90
- Plant response rating, Surinam grass ([2]; Rate 62 g/ha, scale 0 to 100): 30
- Plant response rating, Surinam grass [2, 22]: 30
- Plant response rating, Surinam grass [2, 20]: 90
- Plant response rating, Pigweed ([3]; Rate 62 g/ha, scale 0 to 100): 30
- Plant response rating, Pigweed [3, 20]: 80
- Plant response rating, Pigweed [3, 21]: 80
- Plant response rating, Soybean (soybean (Glycine max); Rate 62 g/ha, scale 0 to 100): 70
- Plant response rating, Soybean (soybean (Glycine max); [20]): 90
- Plant response rating, Soybean (soybean (Glycine max); [21]): 90
- Plant response rating, Goosegrass ([4]; Rate 62 g/ha, scale 0 to 100): 20
- Plant response rating, Goosegrass [4, 20]: 80
- Plant response rating, Johnsongrass ([5]; Rate 62 g/ha, scale 0 to 100): 30
- Plant response rating, Johnsongrass [5, 20]: 50
- Plant response rating, Johnsongrass [5, 21]: 50
- Plant response rating, Johnsongrass ([5]; rate not given, scale 0 to 100): 30
- Plant response rating, Kochia (kochia (Kochia scoparia); Rate 62 g/ha, scale 0 to 100): 40
- Plant response rating, Kochia (kochia (Kochia scoparia); [20]): 90
- Plant response rating, Kochia (kochia (Kochia scoparia); [21]): 90
- Plant response rating, Nutsedge ([6]; Rate 62 g/ha, scale 0 to 100): 0
- Plant response rating, Nutsedge [6, 20]: 20
- Plant response rating, Morningglory ([7]; Rate 62 g/ha, scale 0 to 100): 60
- Plant response rating, Morningglory [7, 20]: 100
- Plant response rating, Morningglory [7, 21]: 100
- Plant response rating, Crabgrass ([8]; Rate 62 g/ha, scale 0 to 100): 40
- Plant response rating, Crabgrass [8, 20]: 70
- Plant response rating, Crabgrass [8, 21]: 70
- Plant response rating, Lambsquarters ([9]; Rate 62 g/ha, scale 0 to 100): 80
- Plant response rating, Lambsquarters [9, 20]: 90
- Plant response rating, Lambsquarters [9, 21]: 100
- Plant response rating, Cocklebur ([10]; Rate 62 g/ha, scale 0 to 100): 40
- Plant response rating, Cocklebur [10, 20]: 80
- Plant response rating, Cocklebur [10, 21]: 100
- Plant response rating, Corn (corn (Zea mays); Rate 62 g/ha, scale 0 to 100): 0
- Plant response rating, Corn (corn (Zea mays); [20]): 0
- Plant response rating, Corn (corn (Zea mays); [21]): 0
- Plant response rating, Corn (corn (Zea mays); scale 0 to 100): 0
- Plant response rating, Chickweed ([15]; Rate 62 g/ha, scale 0 to 100): 90
- Plant response rating, Chickweed [15, 22]: 100
- Plant response rating, Foxtail, Giant [11, 20]: 90
- Plant response rating, Foxtail, Giant [11, 21]: 90
- Plant response rating, Cupgrass, Woolly ([12]; Rate 62 g/ha, scale 0 to 100): 40
- Plant response rating, Cupgrass, Woolly [12, 20]: 70
- Plant response rating, Cupgrass, Woolly [12, 21]: 70
- Plant response rating, Ragweed, Common ([16]; Rate 62 g/ha, scale 0 to 100): 50
- Plant response rating, Ragweed, Common [16, 20]: 90
- Plant response rating, Ragweed, Common [16, 21]: 90
- Plant response rating, Bermudagrass ([13]; Rate 62 g/ha, scale 0 to 100): 30
- Plant response rating, Bermudagrass [13, 22]: 40
- Plant response rating, Bermudagrass [13, 20]: 70
- Plant response rating, Bermudagrass [13, 21]: 90
- Plant response rating, Velvetleaf ([14]; Rate 62 g/ha, scale 0 to 100): 20
- Plant response rating, Velvetleaf [14, 20]: 70
- Plant response rating, Velvetleaf [14, 21]: 70
- Plant response rating, Velvetleaf ([14]; scale 0 to 100): 20
